# Source: patent US6348445B1, “Biologically active peptides with reduced toxicity in animals and a method for preparing same” (priority 1992, dated 2002)
# Assays:
# [1] = pharmacokinetics, single intravenous dose, plasma bioassay (E. coli zone clearing); format: in vivo, mice; details: 140 mg/kg i.v.
# Procedure: A pharmacokinetics study of MSI-1324 in mice using a single dose administration was conducted. Thirty-two CD-1 male mice were injected with MSI-1324 sodium with a dose of 140 mg/kg (corrected for peptide content). Terminal blood samples were obtained from 2 to 4 mice at timepoints of 0 (prior to dosing), 5, 15, 30, 60 min, 2, 4, 6, 24, and 48 hours post-dose. Plasma concentrations were estimated by bioassay.
# 40 animals CD-1®BR mice (Charles River Lab) with a mean body weight of 25.6 gms at study initiation were used.
# A 14 mg/mL solution of MSI-1324 was made in saline (0.9% sodium chloride injectable USP, Baxter) corrected for peptide content.
# Thirty-six mice were intravenously administered a single bolus of MSI-1324 at a dose of 140 mg/kg corrected for peptide content using an injection volume of 10 mL/kg of the 14 mg/mL solution. Four mice were not injected and supplied pre-dosing blood samples. Terminal blood samples were obtained via cardiac puncture in halothane-anesthetized mice at timepoints of 0 (prior to dosing), 5, 15, 30, 60 min, 2, 4, 6, 24, and 48 hours post-dose. Two to four mice were terminally bled at each timepoint. The blood samples were centrifuged and plasma transferred into separate tubes for bioassay analysis. The bioassay used was antibacterial zone clearing (disk diffusion) on Escherichia coli lawns.
# [2] = maximal tolerated dose, single intravenous administration of Compound 1324; format: in vivo, mice; details: for Number of Survivors on Day 0: 2 or 6.5 hrs post-administration
# Procedure: Mice received single intravenous administrations of Compound 1324, the methane sulfonate analogue of Compound 843, and were monitored for survival for at least 4 days. There were no deaths at a dose of less than or equal to 180 mg/kg.
# To determine the maximal tolerated dose (MTD) and estimate the lethal dose 50% (LD50) of Compound 1324 sodium when administered intravenously in a single-bolus in mice.
# Animals: On arrival and study initiation, three groups Thirty-seven male CD-1 mice (Charles River Lab)had average body weights of 39, 28 and 28 gm, respectively.
# Solution Prep: A 120 mg/ml of active Compound 1324 (active moiety corrected for) was made in saline. All concentrations from 5 mg/ml to 80 mg/ml were dilutions of the 120 mg/ml solution with saline. The highest concentration used in the intravenous administration was 20 mg/ml.
# Mice were randomly assigned to one of ten groups (4 mice per group, except the highest dose group which only had one mouse). Mice were administered intravenously 10 ml/kg of either 0 (saline), 5, 6, 7, 8, 14, 16, 18, or 20 mg/ml solution for doses of […]. One mouse received 14.1 ml/kg of a 20 mg/ml solution for a dose of 282 mg/kg. Mice were monitored for survival for at least four days post-administration.
smiles,measurement,setting,value
CCCCCCCC(=O)N[C@@H](CCCNCS(=O)(=O)O)C(=O)N[C@@H](CCCNCS(=O)(=O)O)C(=O)N[C@@H](CC(C)C)C(=O)N[C@@H](CC(C)C)C(=O)N[C@@H](CCCNCS(=O)(=O)O)C(=O)N[C@@H](CCCNCS(=O)(=O)O)C(=O)N[C@@H](CC(C)C)C(=O)N[C@@H](CCCNCS(=O)(=O)O)C(=O)N[C@@H](CCCNCS(=O)(=O)O)C(=O)N[C@@H](CC(C)C)C(N)=O [Compound 1324],peak plasma concentration,[1]; estimated by bioassay,approximately 600 ug/mL
same,time of peak concentration post-dose,[1]; first sampling timepoint,5 min
same,plasma concentration at 60 min post-dose,"[1]; limit of detection approximately 150 ug/mL, listed as MSI-1324",below detection limits of the assay
same,level at 1 h,"[1]; male, CD-1, mouse, plasma, iv, limit of detection approximately 150 ug/mL, read-out: plasma concentration at 60 min post-dose",< 150 µg/mL
same,mice that survived,[2]; 200 mg/kg single intravenous,Three of four
same,Number of Survivors on Day 1,"[2]; IV 50 mg/kg, 4 mice",4
same,Number of Survivors on Day 2,"[2]; IV 50 mg/kg, 4 mice",4
same,Number of Survivors on Day 3,"[2]; IV 50 mg/kg, 4 mice",4
same,Number of Survivors on Day 4,"[2]; IV 50 mg/kg, 4 mice",4
same,Number of Survivors on Day 5,"[2]; IV 50 mg/kg, 4 mice",4
same,Number of Survivors on Day 0,"[2]; IV 50 mg/kg, 4 mice",4
same,Number of Survivors on Day 1,"[2]; IV 60 mg/kg, 4 mice",4
same,Number of Survivors on Day 2,"[2]; IV 60 mg/kg, 4 mice",4
same,Number of Survivors on Day 3,"[2]; IV 60 mg/kg, 4 mice",4
same,Number of Survivors on Day 4,"[2]; IV 60 mg/kg, 4 mice",4
same,Number of Survivors on Day 5,"[2]; IV 60 mg/kg, 4 mice",4
same,Number of Survivors on Day 0,"[2]; IV 60 mg/kg, 4 mice",4
same,Number of Survivors on Day 1,"[2]; IV 70 mg/kg, 4 mice",4
same,Number of Survivors on Day 2,"[2]; IV 70 mg/kg, 4 mice",4
same,Number of Survivors on Day 3,"[2]; IV 70 mg/kg, 4 mice",4
same,Number of Survivors on Day 4,"[2]; IV 70 mg/kg, 4 mice",4
same,Number of Survivors on Day 5,"[2]; IV 70 mg/kg, 4 mice",4
same,Number of Survivors on Day 0,"[2]; IV 70 mg/kg, 4 mice",4
same,Number of Survivors on Day 1,"[2]; IV 80 mg/kg, 4 mice",4
same,Number of Survivors on Day 2,"[2]; IV 80 mg/kg, 4 mice",4
same,Number of Survivors on Day 3,"[2]; IV 80 mg/kg, 4 mice",4
same,Number of Survivors on Day 4,"[2]; IV 80 mg/kg, 4 mice",4
same,Number of Survivors on Day 5,"[2]; IV 80 mg/kg, 4 mice",4
same,Number of Survivors on Day 0,"[2]; IV 80 mg/kg, 4 mice",4
same,Number of Survivors on Day 1,"[2]; IV 140 mg/kg, 4 mice",4
same,Number of Survivors on Day 2,"[2]; IV 140 mg/kg, 4 mice",4
same,Number of Survivors on Day 3,"[2]; IV 140 mg/kg, 4 mice",4
same,Number of Survivors on Day 4,"[2]; IV 140 mg/kg, 4 mice",4
same,Number of Survivors on Day 5,"[2]; IV 140 mg/kg, 4 mice",4
same,Number of Survivors on Day 7,"[2]; IV 140 mg/kg, 4 mice",4
same,Number of Survivors on Day 0,"[2]; IV 140 mg/kg, 4 mice",4
same,Number of Survivors on Day 1,"[2]; IV 160 mg/kg, 4 mice",4
same,Number of Survivors on Day 2,"[2]; IV 160 mg/kg, 4 mice",4
same,Number of Survivors on Day 3,"[2]; IV 160 mg/kg, 4 mice",4
same,Number of Survivors on Day 4,"[2]; IV 160 mg/kg, 4 mice",4
same,Number of Survivors on Day 5,"[2]; IV 160 mg/kg, 4 mice",4
same,Number of Survivors on Day 7,"[2]; IV 160 mg/kg, 4 mice",4
same,Number of Survivors on Day 0,"[2]; IV 160 mg/kg, 4 mice",4
same,Number of Survivors on Day 1,"[2]; IV 180 mg/kg, 4 mice",4
same,Number of Survivors on Day 2,"[2]; IV 180 mg/kg, 4 mice",4
same,Number of Survivors on Day 3,"[2]; IV 180 mg/kg, 4 mice",4
same,Number of Survivors on Day 4,"[2]; IV 180 mg/kg, 4 mice",4
same,Number of Survivors on Day 5,"[2]; IV 180 mg/kg, 4 mice",4
same,Number of Survivors on Day 7,"[2]; IV 180 mg/kg, 4 mice",4
same,Number of Survivors on Day 0,"[2]; IV 180 mg/kg, 4 mice",4
same,Number of Survivors on Day 2,"[2]; IV 200 mg/kg, 4 mice",3
same,Number of Survivors on Day 3,"[2]; IV 200 mg/kg, 4 mice",3
same,Number of Survivors on Day 4,"[2]; IV 200 mg/kg, 4 mice",3
same,Number of Survivors on Day 2,"[2]; IV 282 mg/kg, 1 mouse",0
same,Number of Survivors on Day 3,"[2]; IV 282 mg/kg, 1 mouse",0
same,Number of Survivors on Day 4,"[2]; IV 282 mg/kg, 1 mouse",0
same,LD50,"[2]; mouse, in vivo, single intravenous bolus, CD-1 mice",200 to 282 mg/kg
